# Results taken from ChEMBL document CHEMBL3885861, “Open TG-GATES”.
# Species: Rattus norvegicus
# Experiment: Open TG-GATES - Regimen: Single
# Type: toxicity, organism-based, Sprague-Dawley
# Parameters: regimen Single, gender Male, age 6 weeks
# Settings: in vivo, po, 100 mg/kg, route gavage, dose level Low; for APTT / Bas / Eos / Fbg / Hb / Ht / Lym / MCH / MCHC / MCV / Mono / Neu / PT / Plat / RBC / Ret / WBC: tissue Blood; for KIDNEY_L / KIDNEY_R / KIDNEY_TOTAL: tissue Kidney; for LIVER: tissue Liver; for A/G / ALP / ALT / AST / BUN / CRE / Ca / Cl / DBIL / GLC / IP / K / LDH / Na / PL / RALB / TBIL / TC / TG / TP / gamma-GTP: tissue Plasma
structure (smiles),measurement,setting,value
COC1=CC(=O)C[C@@H](C)[C@]12Oc1c(Cl)c(OC)cc(OC)c1C2=O [GRISEOFULVIN],TERMINAL_BW,3 h,211.4 g
same,APTT,3 h,18.7 s
same,Bas,3 h,0%
same,Eos,3 h,0.8%
same,Fbg,3 h,213 mg/dL
same,Hb,3 h,13 g/dL
same,Ht,3 h,37.9%
same,Lym,3 h,77%
same,MCH,3 h,21.6 pg
same,MCHC,3 h,34.3%
same,MCV,3 h,63.2 fL
same,Mono,3 h,2.8%
same,Neu,3 h,19%
same,PT,3 h,13 s
same,Plat,3 h,121.7 x10_4/uL
same,RBC,3 h,600 x10_4/ul
same,Ret,3 h,8%
same,WBC,3 h,116.5 x10_2/uL
same,KIDNEY_L,3 h,0.9 g
same,KIDNEY_R,3 h,1 g
same,KIDNEY_TOTAL,3 h,1.9 g
same,LIVER,3 h,9.4 g
same,A/G,3 h,1.7
same,ALP,3 h,1005.8 IU/L
same,ALT,3 h,37.8 IU/L
same,AST,3 h,66.8 IU/L
same,BUN,3 h,10.2 mg/dL
same,CRE,3 h,0.3 mg/dL
same,Ca,3 h,10.9 mg/dL
same,Cl,3 h,104.2 meq/L
same,DBIL,3 h,0.2 mg/dL
same,GLC,3 h,181.4 mg/dL
same,IP,3 h,8.8 mg/dL
same,K,3 h,3.7 meq/L
same,LDH,3 h,130.4 IU/L
same,Na,3 h,141.6 meq/L
same,PL,3 h,164 mg/dL
same,RALB,3 h,3.4 g/dL
same,TBIL,3 h,0.3 mg/dL
same,TC,3 h,80.6 mg/dL
same,TG,3 h,131.4 mg/dL
same,TP,3 h,5.4 g/dL
same,gamma-GTP,3 h,0.8 IU/L
same,TERMINAL_BW,6 h,209.8 g
same,APTT,6 h,17.8 s
same,Bas,6 h,0%
same,Eos,6 h,1%
same,Fbg,6 h,218 mg/dL
same,Hb,6 h,13.3 g/dL
same,Ht,6 h,38.8%
same,Lym,6 h,75.6%
same,MCH,6 h,22 pg
same,MCHC,6 h,34.3%
same,MCV,6 h,64.2 fL
same,Mono,6 h,3%
same,Neu,6 h,20%
same,PT,6 h,13 s
same,Plat,6 h,135.7 x10_4/uL
same,RBC,6 h,604.8 x10_4/ul
same,Ret,6 h,8%
same,WBC,6 h,100.3 x10_2/uL
same,KIDNEY_L,6 h,0.9 g
same,KIDNEY_R,6 h,0.9 g
same,KIDNEY_TOTAL,6 h,1.9 g
same,LIVER,6 h,9.1 g
same,A/G,6 h,1.8
same,ALP,6 h,1063.4 IU/L
same,ALT,6 h,38.6 IU/L
same,AST,6 h,70.8 IU/L
same,BUN,6 h,10 mg/dL
same,CRE,6 h,0.4 mg/dL
same,Ca,6 h,10.8 mg/dL
same,Cl,6 h,103.4 meq/L
same,DBIL,6 h,0.094 mg/dL
same,GLC,6 h,200.4 mg/dL
same,IP,6 h,9.7 mg/dL
same,K,6 h,4 meq/L
same,LDH,6 h,179.4 IU/L
same,Na,6 h,141 meq/L
same,PL,6 h,148.4 mg/dL
same,RALB,6 h,3.4 g/dL
same,TBIL,6 h,0.2 mg/dL
same,TC,6 h,80.8 mg/dL
same,TG,6 h,48.6 mg/dL
same,TP,6 h,5.4 g/dL
same,gamma-GTP,6 h,1.6 IU/L
same,TERMINAL_BW,9 h,207.5 g
same,APTT,9 h,18.1 s
same,Bas,9 h,0%
same,Eos,9 h,1%
same,Fbg,9 h,222.6 mg/dL
same,Hb,9 h,13.2 g/dL
same,Ht,9 h,38.8%
same,Lym,9 h,74.8%
same,MCH,9 h,21.4 pg
same,MCHC,9 h,34.1%
same,MCV,9 h,62.9 fL
same,Mono,9 h,2.2%
same,Neu,9 h,22%
same,PT,9 h,13.3 s
same,Plat,9 h,123.9 x10_4/uL
same,RBC,9 h,617.8 x10_4/ul
same,Ret,9 h,7.5%
same,WBC,9 h,96 x10_2/uL
same,KIDNEY_L,9 h,1 g
same,KIDNEY_R,9 h,0.9 g
same,KIDNEY_TOTAL,9 h,1.9 g
same,LIVER,9 h,8.6 g
same,A/G,9 h,1.7
same,ALP,9 h,994.6 IU/L
same,ALT,9 h,34.4 IU/L
same,AST,9 h,64.2 IU/L
same,BUN,9 h,9.8 mg/dL
same,CRE,9 h,0.3 mg/dL
same,Ca,9 h,10.4 mg/dL
same,Cl,9 h,103.6 meq/L
same,DBIL,9 h,0.078 mg/dL
same,GLC,9 h,199.6 mg/dL
same,IP,9 h,10.3 mg/dL
same,K,9 h,3.9 meq/L
same,LDH,9 h,101 IU/L
same,Na,9 h,142 meq/L
same,PL,9 h,138.2 mg/dL
same,RALB,9 h,3.4 g/dL
same,TBIL,9 h,0.1 mg/dL
same,TC,9 h,72.6 mg/dL
same,TG,9 h,48 mg/dL
same,TP,9 h,5.4 g/dL
same,gamma-GTP,9 h,1.2 IU/L
same,TERMINAL_BW,24 h,224.8 g
same,APTT,24 h,19.6 s
same,Bas,24 h,0%
same,Eos,24 h,1%
same,Fbg,24 h,222.4 mg/dL
same,Hb,24 h,13.4 g/dL
same,Ht,24 h,40.6%
same,Lym,24 h,77.6%
same,MCH,24 h,21.5 pg
same,MCHC,24 h,33.1%
same,MCV,24 h,64.8 fL
same,Mono,24 h,3.2%
same,Neu,24 h,17.4%
same,PT,24 h,13.1 s
same,Plat,24 h,117.6 x10_4/uL
same,RBC,24 h,626.6 x10_4/ul
same,Ret,24 h,7.2%
same,WBC,24 h,107.9 x10_2/uL
same,KIDNEY_L,24 h,1 g
same,KIDNEY_R,24 h,1 g
same,KIDNEY_TOTAL,24 h,2 g
same,LIVER,24 h,10.8 g
same,A/G,24 h,1.5
same,ALP,24 h,926.8 IU/L
same,ALT,24 h,41.8 IU/L
same,AST,24 h,69.4 IU/L
same,BUN,24 h,14.4 mg/dL
same,CRE,24 h,0.4 mg/dL
same,Ca,24 h,11 mg/dL
same,Cl,24 h,103.4 meq/L
same,DBIL,24 h,0.1 mg/dL
same,GLC,24 h,215.8 mg/dL
same,IP,24 h,8.5 mg/dL
same,K,24 h,4.2 meq/L
same,LDH,24 h,146.6 IU/L
same,Na,24 h,141.8 meq/L
same,PL,24 h,136.4 mg/dL
same,RALB,24 h,3.3 g/dL
same,TBIL,24 h,0.2 mg/dL
same,TC,24 h,71 mg/dL
same,TG,24 h,95 mg/dL
same,TP,24 h,5.5 g/dL
same,gamma-GTP,24 h,1.4 IU/L
